From patent publication US20200376035A1, “METHODS AND COMPOSITIONS COMPRISING CART AND A SMAC MIMETIC” (THE TRUSTEES OF THE UNIVERSITY OF PENNSYLVANIA, priority 2018, published 2020) come the findings set out here.

Data set [1] concerns HER2+ human ovarian cancer cell line (SKOV3). Description: SMAC mimetics with anti-HER2 CAR T (4D5) against SKOV3, luminescence and XCelligence. The conditions noted are these: SKOV3 + anti-HER2 CAR T (4D5), 50 nM drug vs DMSO. In kind it is cell-based. The protocol: FIGS. 12A-12B illustrate the synergistic killing of solid tumors using CAR cells in combination with SMAC mimetics. […] E:T ratio=0.01:1, [Drug]=50 nM. 24 h co-culture, A human ovarian cell line expressing endogenous HER2 and luciferase reporter (SKOV3 CBG-T2A-GFP) was seeded at density of 10^4 cells/100 μl of media in each well of 96 well plate and grown overnight. Next day, CAR T cells (4D5; Liu et al. Cancer Research 2015; (75)(17):3596-607, incorporated by reference herein in its entirety) were introduced at E:T ratio=0.01:1 50 nM of SMAC mimetics or corresponding amounts of DMSO. After 48 hours, luciferin was added to the cells and luminescence was detected using a luminometer (Biotek Synergy H4). Tumor killing was calculated using the formula: (sample-tumor treated with DMSO)/(lysis control-tumor treated with DMSO). A human ovarian adenocarcinoma cell line (SKOV3) expressing endogenous HER2 was cultured in the presence or absence of human T cells expressing a chimeric antigen receptor against HER2 at a 1:1 CART:Tumor ratio. Cells were treated with 50 nM of birinapant ([…]), BV6, AZD5582 or corresponding amounts of DMSO. Tumor killing was monitored in real-time using the impedance-based […]@ system (ACEA Biosciences, Inc).

In data set [2] the test system is CD19+ Luc+ NALM-6 leukemia cell line. Description: High-throughput screen of small molecule library for CART-enhancing compounds (luminescence, 48 hours). Particulars: for effect on CART killing activity in the screen: NALM-6 + CART19, 0.3:1 E:T ratio. The format is cell-based, human. The protocol: FIG. 6 illustrates a high-throughput platform to identify CART-enhancing bioactive compounds. The CD19+ Luc+ NALM-6 leukemia cell line was plated at 0.3:1 E:T ratio+/− CART19 using an automated dispenser, Small molecules from a custom-made library (SelleckChem) were then added via an automated workstation and luminescence was detected after 48 hours with a high-throughput plate reader.
FIG. 7 illustrates that birinapant enhances CART cell cytotoxicity. Screening results: total cytotoxicity (%) of small molecules alone (Y axis) or in combination with CART (X axis). Birinapant is represented by the dot at the “40” mark on the X axis (●).
An unbiased, reliable, automated, high-throughput system was generated to test thousands of different combinations of CART and small molecules. […] Subsequently, 2,615 different small molecules were added (1 per well). More than half of these drugs are FDA-approved. After 48 hours, tumor luminescence was recorded and percentage tumor killing was calculated. This platform has already generated several significant hits. See FIG. 7, birinapant in grey, represented by the dot at the “40” mark on the X axis (●). Thus, small molecules enhancing CART killing can be identified.
Birinapant was the only SMAC mimetic in the library.

Data set [3] concerns human pre-B ALL cell line (NALM6 CBG-T2A-GFP). Description: CART19 (CTL019) killing of NALM6 with birinapant, luciferase readout after 72 hours. The format is cell-based. The conditions noted are these: NALM6 + CTL019 at different ratios, different doses of birinapant vs DMSO. The protocol: FIG. 1A is a graph showing the percentage of tumor killing by CART as a result of increasing concentrations of birinapant or corresponding amounts of DMSO as a control. FIG. 1B is a graph showing the percentage of tumor killing by CART as a function of CART:Tumor ratio. For FIGS. 1A-1B, a human pre-B ALL cell line expressing endogenous CD19 and a luciferase reporter (NALM6 CBG-T2A-GFP) was cultured in the presence or absence of human T cells expressing a chimeric antigen receptor against CD19 (CTL019, KYMRIAH®) at different ratios. Cells were treated with different doses of birinapant (TL32711, Medivir) or corresponding amounts of DMSO. After 72 hours luciferin was added to the cells and luminescence was detected using a luminometer (Biotek Synergy H4). Tumor killing was calculated using the formula: (sample−tumor treated with DMSO)/(lysis control−tumor treated with DMSO). […]
A human pre-B ALL cell line expressing endogenous CD19 and a luciferase reporter (NALM6 CBG-T2A-GFP) was cultured in the presence or absence of human T cells expressing a chimeric antigen receptor against CD19 (CTL019, KYMRIAH®) at different ratios. […] After 72 hours luciferin was added to the cells and luminescence was detected using a luminometer (Biotek Synergy H4). Tumor killing was calculated using the formula: (sample−tumor treated with DMSO)/(lysis control−tumor treated with DMSO). […]

The subject of data set [4] is human ovarian adenocarcinoma cell line (SKOV3). Description: Anti-HER2 CART (CAR 4D5) killing of SKOV3 with birinapant, impedance-based XCelligence. The format is cell-based. The conditions noted are these: SKOV3 + CAR 4D5, 1:1 CART:Tumor ratio, different doses of birinapant vs DMSO, real-time impedance. Here is the method:
FIG. 2A is a graph showing the growth and clearance of tumor cells over time. At approximately 21 h (vertical line) tumor cells were treated with only Birinapant (solid lines) or Birinapant and CART cells (dotted lines, 1:1 CART:Tumor ratio). FIG. 2B is analogous to FIG. 2A except for the addition of DMSO instead of Birinapant. FIGS. 2C and 2D summarize the results of FIGS. 2A and 2B, respectively (10 nM Birinapant or DMSO). For FIGS. 2A-2D, a human ovarian adenocarcinoma cell line (SKOV3) expressing endogenous HER2 was cultured in the presence or absence of human T cells expressing a chimeric antigen receptor against HER2 (CAR 4D5) at a 1:1 CART:Tumor ratio, Cells were treated with different doses of birinapant (TL32711, Medivir) or corresponding amounts of DMSO. Tumor killing was monitored in real-time using the impedance-based XCelligence® system (ACEA Biosciences, Inc),
A human ovarian adenocarcinoma cell line (SKOV3) expressing endogenous HER2 was cultured in the presence or absence of human T cells expressing a chimeric antigen receptor against HER2 (CAR 4D5; Liu et al. Cancer Research 2015; (7517):3596-607, incorporated by reference herein in its entirety) at a 1:1 CART:Tumor ratio. […] Tumor killing was monitored in real-time using the impedance-based XCelligence® system (ACEA Biosciences, Inc).

Data set [5] relates to human pre-B ALL cell line (NALM6 CBG-T2A-GFP). The data set can be described thus: Birinapant-enhanced CART19 killing of NALM6 with TNF antibodies, 72 hours. In kind it is cell-based. Particulars: NALM6 + CTL019, 1 μM birinapant with isotype control or TNF antibodies. Here is the method:
(§1) A human pre-B ALL cell line expressing endogenous CD19 and a luciferase reporter (NALM6 CBG-T2A-GFP) was cultured in the presence or absence of human T cells expressing a chimeric antigen receptor against CD19 (CTL019, KYMRIAH®). Cells were either treated with 1 μM of birinapant (TL32711, Medivir), corresponding amounts of DMSO or 1 μM birinapant (TL32711, Medivir) in combination with different amounts of isotype control or TNF antibodies. After 72 hours, luciferin was added to the cells and luminescence was detected using a luminometer (Biotek Synergy H4), Tumor killing was calculated using the formula: (sample−tumor treated with DMSO)/(lysis control−tumor treated with DMSO).
as §1, with “μM” for “μM of”, “and” for “in combination with”, “H4).” for “H4),”

Molecules are shown by their SMILES. *1 amine or outer side, *2 acyl side, *3 side chain or, on linkers, in order; H or OH if unused. Where a SMILES comes first, the peptide text is derived from it. Bridges are numbered along the chain shown (N, C = ends). Roman numbers before positions name the chains, in order. [ ]: non-standard residue; d: D form. Hexamethylenediamine = C(CCCN[*:2])CCN[*:1]; Dip = N[C@H](C(=O)O)C(c1ccccc1)c1ccccc1; Chg = N[C@H](C(=O)O)C1CCCCC1; NMeA = CN[C@@H](C)C(=O)O

With `CN[C@@H](C)C(=O)N[C@H](C(=O)N1CCC[C@H]1C(=O)N[C@H]1c2ccccc2C[C@H]1OCC#CC#CCO[C@@H]1Cc2ccccc2[C@@H]1NC(=O)[C@@H]1CCCN1C(=O)[C@@H](NC(=O)[C@H](C)NC)C1CCCCC1)C1CCCCC1` [AZD5582, (2S,2′S)-N,N′-((S,1′S,2R,2′R)-(hexa-2,4-diyne-1,6-diylbis(oxy))bis(2,3-dihydro-1H-indene-2,1-diyl))bis(1-((S)-2-cyclohexyl-2-((S)-2-(methylamino)propanamido)acetyl)pyrrolidine-2-carboxamide)], the “CART killing of solid tumor cell lines” value in data set [1] is on record as “enhance CART killing of solid tumor cell lines”. On the same count and under the same terms, as for `CN[C@@H](C)C(=O)N[C@H](C(=O)N1CCC[C@H]1C(=O)N[C@H](C(=O)NCCCCCCNC(=O)[C@@H](NC(=O)[C@@H]1CCCN1C(=O)[C@@H](NC(=O)[C@H](C)NC)C1CCCCC1)C(c1ccccc1)c1ccccc1)C(c1ccccc1)c1ccccc1)C1CCCCC1` [BV6, ((S,S,2S,2′S)-N,N′-((2S,2′S)-(hexane-1,6-diylbis(azanediyl))bis(3-oxo-1,1-diphenylpropane-3,2-diyl))bis(1-((S)-2-cyclohexyl-2-((S)-2-(methylamino)propanamido)acetyl)pyrrolidine-2-carboxamide))] (I: H-[NMeA][Chg]P[Dip] / II: H-[NMeA][Chg]P[Dip]; linker I:C-II:C via Hexamethylenediamine), the entry is “enhance CART killing of solid tumor cell lines”.

With `CCCCCCCCCCCC1=C(O)C(=O)C=C(O)C1=O` [Embelin, 2,5-Dihydroxy-3-undecyl-2,5-cyclohexadiene-1,4-dione], the “effect on CART killing activity in the screen” value in data set [2] is “Neither Embelin nor GDC-0152 revealed a significant effect on CART killing activity”. With `CN[C@@H](C)C(=O)N[C@H](C(=O)N1CCC[C@H]1C(=O)Nc1snnc1-c1ccccc1)C1CCCCC1` [GDC-0152, (S)-1-((S)-2-cyclohexyl-2-((S)-2-(methylamino)propanamido)acetyl)-N-(4-phenyl-1,2,3-thiadiazol-5-yl)pyrrolidine-2-carboxamide], the “effect on CART killing activity in the screen” value in data set [2] is “Neither Embelin nor GDC-0152 revealed a significant effect on CART killing activity”.

Take `CC[C@H](NC(=O)[C@H](C)NC)C(=O)N1C[C@@H](O)C[C@H]1Cc1c(-c2[nH]c3cc(F)ccc3c2C[C@@H]2C[C@H](O)CN2C(=O)[C@H](CC)NC(=O)[C@H](C)NC)[nH]c2cc(F)ccc12` [birinapant, (2S)-N-[(2S)-1-[(2R,4S)-2-[[6-fluoro-2-[6-fluoro-3-[[(2R,4S)-4-hydroxy-1-[(2S)-2-[[(2S)-2-(methylamino)propanoyl]amino]butanoyl]pyrrolidin-2-yl]methyl]-1H-indol-2-yl]-1H-indol-3-yl]methyl]-4-hydroxypyrrolidin-1-yl]-1-oxobutan-2-yl]-2-(methylamino)propanamide]: in data set [2] (FIG. 7, NALM-6 + CART19, 0.3:1 E:T ratio), the “total cytotoxicity (%) of small molecules in combination with CART (X axis)” value came out at 40%. Besides, the “CART killing of leukemic cell lines” value in data set [3] is “enhances CART killing of leukemic cell lines”. Also, the results for the “CART killing of solid tumor cell lines” value in data set [4] and in data set [1] were “enhances CART killing of solid tumor cell lines” and “enhance CART killing of solid tumor cell lines”, respectively. For the same compound, the “TNF dependence of enhanced CART killing of tumor” value in data set [5] is recorded as “birinapant-enhanced CART killing of tumor is TNF-dependent”.
